Results taken from patent US20030060472A1, “Novel substituted nitrocatechols, their use in the treatment of some central and peripheral nervous system disorders and pharmaceutical compositions containing them” (priority 2001, published 2003).

Key:
[1] = tested on: Brain COMT; test: Ex vivo COMT activity in mice brain homogenates after administration by gastric tube; conditions: for Brain COMT (% of control) 1 h / Brain COMT (% of control) 6 h: mice brain homogenates, means ± S.E.M. of 4-8; for Brain COMT (% of control) 1 h: 1 h after administration by gastric tube; for Brain COMT (% of control) 6 h: 6 h after administration by gastric tube; for Duration of COMT inhibition and activity in the brain: conclusion from the mice study
[2] = tested on: Liver COMT; test: Ex vivo COMT activity in mice liver homogenates after administration by gastric tube; conditions: for Potency upon liver COMT compared with brain COMT: mice, after oral administration; for Liver COMT (% of control) 1 h / Liver COMT (% of control) 6 h: mice liver homogenates, means ± S.E.M. of 4-8; for Liver COMT (% of control) 1 h: 1 h after administration by gastric tube; for Liver COMT (% of control) 6 h: 6 h after administration by gastric tube
[3] = biological target: T1, COMT (Homo sapiens, UniProt P21964); test: COMT activity (O-methylation of adrenaline to metanephrine) in intact SK-N-SH cells; format: cell-based; conditions: test compound 100 nM, means ± SEM, n = 4-8
T1 construct: O-methylationof adrenaline in intact SK-N-SH cells; host or cells: SK-N-SH cells
T1 sequence (P21964 1-271): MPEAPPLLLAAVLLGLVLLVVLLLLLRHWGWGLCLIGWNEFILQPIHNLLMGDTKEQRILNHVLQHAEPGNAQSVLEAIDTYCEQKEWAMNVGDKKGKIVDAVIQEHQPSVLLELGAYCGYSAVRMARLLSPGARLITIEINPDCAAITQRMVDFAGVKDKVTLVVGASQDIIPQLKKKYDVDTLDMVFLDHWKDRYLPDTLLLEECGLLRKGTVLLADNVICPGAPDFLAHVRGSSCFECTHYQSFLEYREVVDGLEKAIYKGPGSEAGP

SMILES	Brain COMT (% of control) 1 h [1]	Brain COMT (% of control) 6 h [1]	Potency upon liver COMT compared with brain COMT [2]	Duration of COMT inhibition and activity in the brain [1]	also measured
Cl.O=C(CN1CCCCCC1)c1cc(O)c(O)c([N+](=O)[O-])c1 [Compound 1, 2-Azepan-1-yl-1-(3,4-dihydroxy-5-nitro-phenyl)-ethanone hydrochloride]	45.0 ± 15.0 % of control	102.0 ± 19.0 % of control	–	–	–
Cl.O=C(CCN1CCCCC1)c1cc(O)c(O)c([N+](=O)[O-])c1 [Compound 2, 1-(3,4-Dihydroxy-5-nitro-phenyl)-3-piperidin-1-yl-propan-1-one hydrochloride]	–	–	much more potent upon liver COMT than brain COMT	long acting COMT inhibitor with limited activity in the brain	–
Cl.O=C(CC(c1ccccc1)N1CCCCC1)c1cc(O)c(O)c([N+](=O)[O-])c1 (stereo not shown) [Compound 3, 1-(3,4-Dihydroxy-5-nitro-phenyl)-3-phenyl-3-piperidin-1-yl-propan-1-one hydrochloride]	–	–	much more potent upon liver COMT than brain COMT	long acting COMT inhibitor with limited activity in the brain	–
Cl.O=C(CC(c1ccccc1)N1CCOCC1)c1cc(O)c(O)c([N+](=O)[O-])c1 (stereo not shown) [Compound 5, 1-(3,4-Dihydroxy-5-nitro-phenyl)-3-morpholin-4-yl-3-phenyl-propan-1-one hydrochloride]	–	–	equally potent in inhibiting liver and brain COMT activity	–	–
CC1CCCCN1CC(=O)c1cc(O)c(O)c([N+](=O)[O-])c1.Cl (stereo not shown) [Compound 6, 1-(3,4-Dihydroxy-5-nitro-phenyl)-2-(2-methyl-piperidin-1-yl)-ethanone hydrochloride]	37.0 ± 3.3 % of control	66.0 ± 2.6 % of control	–	–	–
CCN(CC)C(C)C(=O)c1cc(O)c(O)c([N+](=O)[O-])c1.Cl (stereo not shown) [Compound 7, 2-Diethylamino-1-(3,4-dihydroxy-5-nitro-phenyl)-propan-1-one hydrochloride]	74.0 ± 12.0 % of control	126.0 ± 8.0 % of control	–	–	COMT activity (% of control) [3]: 9.0 ± 0.2 % of control; Liver COMT (% of control) 1 h [2]: 38.4 ± 2.8 % of control; Liver COMT (% of control) 6 h [2]: 57.1 ± 4.9 % of control
O=C(COc1ccc2ccccc2c1)c1cc(O)c(O)c([N+](=O)[O-])c1 [Compound 10, 1-(3,4-Dihydroxy-5-nitro-phenyl)-2-(naphthalen-2-yloxy)-ethanone]	–	–	much more potent upon liver COMT than brain COMT	long acting COMT inhibitor with limited activity in the brain	–
CC1CN(CC(=O)c2cc(O)c(O)c([N+](=O)[O-])c2)CC(C)O1.Cl (stereo not shown) [Compound 11, 1-(3,4-Dihydroxy-5-nitro-phenyl)-2-(2,6-dimethyl-morpholin-4-yl)-ethanone hydrochloride]	80.0 ± 5.0 % of control	103.0 ± 7.0 % of control	–	–	–
CC1CC(C)CN(CC(=O)c2cc(O)c(O)c([N+](=O)[O-])c2)C1.Cl (stereo not shown) [Compound 12, 1-(3,4-Dihydroxy-5-nitro-phenyl)-2-(3,5-dimethyl-piperidin-1-yl)-ethanone hydrochloride]	32.0 ± 2.0 % of control	84.0 ± 6.0 % of control	–	–	–
Cl.N#CC1(c2ccccc2)CCN(CCC(=O)c2cc(O)c(O)c([N+](=O)[O-])c2)CC1 [Compound 15, 1-[3-(3,4-Dihydroxy-5-nitro-phenyl)-3-oxo-propyl]-4-phenyl-piperidine-4-carbonitrile hydrochloride]	93.0 ± 9.0 % of control	122.0 ± 9.0 % of control	–	–	COMT activity (% of control) [3]: 2.9 ± 0.3 % of control; Liver COMT (% of control) 1 h [2]: 51.7 ± 5.9 % of control; Liver COMT (% of control) 6 h [2]: 37.9 ± 8.4 % of control
Cl.O=C(CCN1CCCCCCC1)c1cc(O)c(O)c([N+](=O)[O-])c1 [Compound 16, 3-Azocan-1-yl-1-(3,4-dihydroxy-5-nitro-phenyl)-propan-1-one hydrochloride]	–	–	equally potent in inhibiting liver and brain COMT activity	–	–
Cl.Cl.O=C(CCN1CCN(c2cccc(C(F)(F)F)c2)CC1)c1cc(O)c(O)c([N+](=O)[O-])c1 [Compound 18, 1-(3,4-Dihydroxy-5-nitro-phenyl)-3-[4-(3-trifluoromethyl-phenyl)-piperazin-1-yl]-propan-1-one dihydrochloride]	–	–	much more potent upon liver COMT than brain COMT	long acting COMT inhibitor with limited activity in the brain	–
